Measurements as given in PubChem BioAssay (NCI).
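Values below derive from 48-hour exposures of cells grown in 96-well plates, with endpoints linearly interpolated between the two concentrations bracketing the appropriate inhibition level. At the TGI there is no net growth.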

Tests used:
Test in all cases: growth of human tumour cells (NCI), 48 h
[1] = system: HT29 colon
[2] = system: SK-MEL-5 melanoma
[3] = system: RPMI-8226 leukemia
[4] = system: SNB-19 CNS
[5] = system: MCF7 breast
[6] = system: TK-10 renal
[7] = system: HOP-92 NSCLC
[8] = system: HCT-116 colon
[9] = system: SF-268 CNS
[10] = system: K-562 leukemia

Compound | TGI [1] [µM] | TGI [2] [µM] | TGI [3] [µM] | TGI [4] [µM] | TGI [5] [µM] | TGI [6] [µM] | TGI [7] [µM] | TGI [8] [µM] | TGI [9] [µM] | TGI [10] [µM]
CC1=CC=CC(C)(C)CC1(O[Si](C)(C)C)C(F)(F)F (stereo not given) | > 100 | > 100 | > 100 | > 100 | > 100 | > 100 | > 100 | > 100 | > 100 | > 100
N#CSCc1cccc(Nc2cc(=O)[nH]c(=O)[nH]2)c1 | > 100 | 99.1 | > 100 | > 100 | 38.9 | > 100 | 85.7 | > 100 | 78.4 | > 100
C/C(=N/NC(=S)Nc1cccc(C)c1)c1ccccn1 | 2.39 | 1.6 | 13.7 | 14.3 | 0.224 | 4.98 | 6.12 | 3.11 | 13.9 | 1.64
Cc1cc(O)cc(O)c1N=Nc1ccc([N+](=O)[O-])cc1 | > 100 | 38.4 | 39.8 | > 100 | > 100 | > 100 | 8.17 | 15.4 | > 100 | > 100
O=C1NC(=S)NC(=O)C1C(c1ccccc1[N+](=O)[O-])C1C(=O)NC(=S)NC1=O | > 100 | > 100 | > 100 | > 100 | > 100 | > 100 | > 100 | > 100 | > 100 | > 100
Cc1oc2nc(N(C)C)n3nnnc3c2c1C | > 100 | > 100 | > 100 | > 100 | > 100 | > 100 | > 100 | > 100 | > 100 | > 100
CC(=O)OCC1OC(n2c(=S)[nH]c(-c3ccccc3)c(C#N)c2=O)C(OC(C)=O)C(OC(C)=O)C1OC(C)=O (stereo not given) | > 100 | > 100 | > 100 | > 100 | > 100 | > 100 | > 100 | > 100 | > 100 | > 100
Cc1cccc(N(CCC#N)S(=O)(=O)c2ccccc2)c1 | > 100 | > 100 | > 100 | > 100 | > 100 | > 100 | > 100 | > 100 | > 100 | > 100
CCOc1ccc(N=C/C=C(\Cl)c2ccc3ccccc3c2)cc1 | 33.3 | 31 | 24.7 | 35.7 | 55.1 | 35.7 | 33.3 | 21.6 | 37.4 | 23.7
CCOC(=O)c1cnc2[nH]ccn2c1=O | > 10 | > 10 | > 10 | > 10 | > 10 | > 10 | > 10 | > 10 | > 10 | > 10
C=CC/C(C(=O)OC)=C(/C(=O)OC)N(CCC)CCC | > 100 | > 100 | > 100 | > 100 | > 100 | > 100 | > 100 | > 100 | > 100 | > 100
c1ccc2c(c1)CCCN1CCc3ccccc3C21 (stereo not given) | > 100 | 70.9 | > 100 | > 100 | > 100 | > 100 | > 100 | > 100 | > 100 | > 100
Cc1nc2cc(C(F)(F)F)ccc2[nH]c1=O | > 100 | > 100 | > 100 | > 100 | > 100 | > 100 | > 100 | > 100 | > 100 | > 100
CC1=CC(=O)N(n2c(C)n[nH]c2=O)C1=O | > 100 | > 100 | > 100 | > 100 | > 100 | > 100 | > 100 | > 100 | > 100 | > 100
O=c1c2cc(I)ccc2[nH]c(=S)n1Cc1ccccc1 | > 100 | > 100 | > 100 | 98.9 | > 100 | 42 | 63.2 | > 100 | 57.5 | > 100
N#Cc1c2c(c(Nc3ccc(F)cc3)n3c1nc1ccccc13)CCC2 | 3.61 | 8.52 | > 21.3 | 22.1 | 16 | 6.51 | 20.5 | 3.45 | 18.1 | > 100
O=C1N[C@@H]2c3c(csc3Br)C(=O)[C@@H]2O1 | > 100 | > 100 | 85.1 | > 100 | > 100 | 80.3 | 59.3 | > 100 | > 100 | 53.4
Cc1cccc(C[C@@]2(SCc3ccccc3)C(C)(C)[C@@H]3CC[C@@]2(C)C3)n1 | 31.9 | 29.4 | 30.5 | 33.1 | 26.8 | 34.5 | 27.6 | 31.9 | 29.5 | 28.9
O=[N+]([O-])C(=C(Sc1ccccc1)Sc1ccccc1)C(Cl)=C(Cl)Cl | 0.487 | 3.58 | 0.0712 | 24.8 | 1.05 | 0.326 | 5.99 | 0.125 | 5.37 | 0.701
O=C1/C(=C/c2ccc([N+](=O)[O-])cc2)CNC/C1=C\c1ccc([N+](=O)[O-])cc1 | 3.57 | 25.3 | 2.75 | 10.6 | > 100 | > 95.8 | 59 | 1.97 | 4.47 | 1.21
Cc1nc2ccc([N+](=O)[O-])cc2c(=O)n1C(=S)Nc1cccc(Cl)c1 | 39.6 | 28.9 | 19.6 | > 100 | 49.5 | 67.5 | 25.6 | 36.9 | 42.9 | 98.5
COC(=O)C1CC(C=[N+](C)C)=C(SC)N1 (stereo not given) | > 100 | > 100 | > 100 | > 100 | > 100 | > 100 | > 100 | > 100 | > 100 | > 100
O=C(O)CNC(=O)c1ccc([As](=O)(O)O)cc1 | > 100 | > 100 | > 100 | > 100 | > 100 | > 100 | > 100 | > 100 | > 100 | > 100
O=C1OC[C@@H]2Cc3c([nH]c4ccccc34)[C@@H](c3ccc(O)cc3)N12 | 98.4 | 33.2 | > 80.9 | > 100 | > 100 | > 100 | > 100 | 35 | > 100 | > 75.2
O=C(O)c1ccc(NS(=O)(=O)Cc2ccccc2)cc1 | > 100 | > 100 | > 100 | > 100 | > 100 | > 100 | > 100 | > 100 | > 100 | > 100
CCOC(=O)C1C(=O)CC(O)(c2ccccc2)C(C(=O)OCC)C1c1ccc(OC)cc1 (stereo not given) | 35.9 | > 100 | 40.6 | > 72.5 | > 100 | > 100 | > 82 | > 47 | > 100 | > 83.4
